Experimental data taken from ChEMBL document CHEMBL3046757, “Design, synthesis, and biological evaluation of novel pyridine acid esters of podophyllotoxin and esters of 4-demethylepipodophyllotoxin” (2007).

Columns and labels:
Format in all cases: functional
P388 [1] = assay: Growth inhibition of Mus musculus (mouse) P388 cells at 10^-8 mol/l after 72 hr by MTT assay; conditions: P388, 72 h, read-out: GI
A549 [2] = assay: Growth inhibition of Homo sapiens (human) A549 cells at 10^-5 mol/l after 72 hr by MTT assay; conditions: A549, 72 h, read-out: GI
P388 [3] = assay: Growth inhibition of Mus musculus (mouse) P388 cells at 10^-4 mol/l after 72 hr by MTT assay; conditions: P388, 72 h, read-out: GI
A549 [4] = assay: Growth inhibition of Homo sapiens (human) A549 cells at 10^-8 mol/l after 72 hr by MTT assay; conditions: A549, 72 h, read-out: GI
P388 [5] = assay: Growth inhibition of Mus musculus (mouse) P388 cells at 10^-6 mol/l after 72 hr by MTT assay; conditions: P388, 72 h, read-out: GI
P388 [6] = assay: Growth inhibition of Mus musculus (mouse) P388 cells at 10^-7 mol/l after 72 hr by MTT assay; conditions: P388, 72 h, read-out: GI
A549 [7] = assay: Growth inhibition of Homo sapiens (human) A549 cells at 10^-4 mol/l after 72 hr by MTT assay; conditions: A549, 72 h, read-out: GI
A549 [8] = assay: Growth inhibition of Homo sapiens (human) A549 cells at 10^-6 mol/l after 72 hr by MTT assay; conditions: A549, 72 h, read-out: GI
P388 [9] = assay: Growth inhibition of Mus musculus (mouse) P388 cells at 10^-5 mol/l after 72 hr by MTT assay; conditions: P388, 72 h, read-out: GI
A549 [10] = assay: Growth inhibition of Homo sapiens (human) A549 cells at 10^-7 mol/l after 72 hr by MTT assay; conditions: A549, 72 h, read-out: GI

Row | SMILES | inhibition of growth at 0.01 µM (P388 [1]) [%] | inhibition of growth at 10 µM (A549 [2]) [%] | inhibition of growth at 100 µM (P388 [3]) [%] | inhibition of growth at 0.01 µM (A549 [4]) [%] | inhibition of growth at 1 µM (P388 [5]) [%] | inhibition of growth at 0.1 µM (P388 [6]) [%] | inhibition of growth at 100 µM (A549 [7]) [%] | inhibition of growth at 1 µM (A549 [8]) [%] | inhibition of growth at 10 µM (P388 [9]) [%] | inhibition of growth at 0.1 µM (A549 [10]) [%]
1 | COc1cc([C@@H]2c3cc4c(cc3[C@H](OC(=O)c3cccnc3)[C@H]3COC(=O)[C@H]23)OCO4)cc(OC)c1OC [4-O-PODOPHYLLOTOXINYL-NICOTINATE] | 83.4 | 84.9 | 87.5 | 81 | 84.1 | 83.8 | 87.5 | 82.8 | 84.8 | 82.2
2 | COc1cc([C@@H]2c3cc4c(cc3[C@@H](OC(=O)c3ccc(Cl)nc3)[C@H]3COC(=O)[C@H]23)OCO4)cc(OC)c1O [4-O-DEMETHYLEPIPODOPHYLLOTOXINYL-6'-CHLORONICOTINATE] | 20.2 | 93.9 | 100 | 59.3 | 73.4 | 28.4 | 85.4 | 72.5 | 81.1 | 70.7
3 | COc1cc([C@@H]2c3cc4c(cc3[C@@H](OC(=O)c3ccncc3)[C@H]3COC(=O)[C@H]23)OCO4)cc(OC)c1O [4-O-DEMETHYLEPIPODOPHYLLOTOXINYL-ISONICOTINATE] | 19.8 | 67.8 | 100 | 54 | 76.5 | 53.5 | 95.1 | 66.4 | 86.9 | 66.1
4 | COc1cc([C@@H]2c3cc4c(cc3[C@H](OC(=O)c3ccncc3)[C@H]3COC(=O)[C@H]23)OCO4)cc(OC)c1OC [4-O-PODOPHYLLOTOXINYL-ISONICOTINATE] | 83.8 | 84.4 | 89 | 81.4 | 84.8 | 84.8 | 89.2 | 82.6 | 85.1 | 81.8
5 | COc1cc([C@@H]2c3cc4c(cc3[C@H](OC(=O)c3cncc(Br)c3)[C@H]3COC(=O)[C@H]23)OCO4)cc(OC)c1OC [4-O-PODOPHYLLOTOXINYL-5'-BROMONICOTINATE] | 80.6 | 84.7 | 97.7 | 77.3 | 85 | 82.8 | 91.1 | 82.7 | 87.4 | 80.9
6 | COc1cc([C@@H]2c3cc4c(cc3[C@H](OC(=O)c3ccc(Cl)nc3)[C@H]3COC(=O)[C@H]23)OCO4)cc(OC)c1OC [4-O-PODOPHYLLOTOXINYL-6'-CHLORONICOTINATE] | 80.1 | 87 | 92.1 | 81.5 | 85 | 84.3 | 87.9 | 85.9 | 88.3 | 83
7 | COc1cc([C@@H]2c3cc4c(cc3[C@@H](OC(=O)c3cccnc3Cl)[C@H]3COC(=O)[C@H]23)OCO4)cc(OC)c1O [4-O-DEMETHYLEPIPODOPHYLLOTOXINYL-2'-CHLORONICOTINATE] | 9.1 | 78.1 | 100 | 56.6 | 72.3 | 12.8 | 92.5 | 69.8 | 84.7 | 62.5
8 | COc1cc([C@@H]2c3cc4c(cc3[C@H](OC(=O)c3ccccn3)[C@H]3COC(=O)[C@H]23)OCO4)cc(OC)c1OC [4-O-PODOPHYLLOTOXINYL-PICOLINATE] | 85.4 | 84 | 87.7 | 81.4 | 86 | 85.5 | 89.2 | 82.3 | 87 | 81.8
9 | COc1cc([C@@H]2c3cc4c(cc3[C@H](OC(=O)c3cccnc3Cl)[C@H]3COC(=O)[C@H]23)OCO4)cc(OC)c1OC [4-O-PODOPHYLLOTOXINYL-2'-CHLORONICOTINATE] | 80.6 | 82.5 | 87.3 | 79.5 | 85 | 84.7 | 86.6 | 81.3 | 85.8 | 80.4
10 | COc1cc([C@@H]2c3cc4c(cc3[C@@H](OC(=O)c3cncc(Br)c3)[C@H]3COC(=O)[C@H]23)OCO4)cc(OC)c1O [4-O-DEMETHYLEPIPODOPHYLLOTOXINYL-5'-BROMONICOTINATE] | 2 | 82 | 100 | 71 | 66.1 | 63.5 | 87.3 | 78.4 | 87.4 | 74.6
11 | COc1cc([C@@H]2c3cc4c(cc3[C@@H](O[C@@H]3O[C@@H]5CO[C@@H](C)O[C@H]5[C@H](O)[C@H]3O)[C@H]3COC(=O)[C@H]23)OCO4)cc(OC)c1O [ETOPOSIDE] | 1.8 | 50.7 | 99.2 | 0 | 25.5 | 6 | 97.5 | 45 | 70.6 | 0
12 | COc1cc([C@@H]2c3cc4c(cc3[C@@H](OC(=O)c3cccnc3)[C@H]3COC(=O)[C@H]23)OCO4)cc(OC)c1O [4-O-DEMETHYLEPIPODOPHYLLOTOXINYL-NICOTINATE] | 4.4 | 79.9 | 100 | 71.9 | 72.1 | 71.4 | 91.4 | 74 | 87.9 | 72.6
13 | COc1cc([C@@H]2c3cc4c(cc3[C@@H](OC(=O)c3ccccn3)[C@H]3COC(=O)[C@H]23)OCO4)cc(OC)c1O [4-O-DEMETHYLEPIPODOPHYLLOTOXINYL-PICOLINATE] | 39.7 | 78.8 | 100 | 53.7 | 73.5 | 68 | 91.6 | 73.7 | 88.6 | 56
